The values that follow come from article PMC7238036, “An Interspecies Molecular and Functional Study of Organic Cation Transporters at the Blood-Brain Barrier: From Rodents to Humans” (Pharmaceutics, 2020).

The subject of one data set is OCT1 and/or OCT2. On the set-up: method as in PMID 20477935. As to conditions: cited from earlier work.
For data set [1], the system named is primary human brain microvascular endothelial cells (BMVECs). The protocol: BMVECs were obtained from isolated human brain microvessels and cultured in petri dishes in the presence of puromycin (P0), to avoid contamination from other cell types. BMVECs were later used in astrocyte-conditioned culture media for protein extraction, or for the establishment of a human BBB model to conduct permeability assays.
After BMVECs amplification, cells were seeded on inserts (Transwell, Corning, ThermoFisher, Les Ulis, France). […] Permeability studies using radiolabeled [^3H]-L-Phenylalanine (~4 nM) or [^3H]-MPP^+ (~6 nM) were performed on BMVECs once the establishment of a good BBB model was verified.

The test system of another data set is BBB. The note with it: cited from earlier work.

Protocol for luminal BBB: Transport of [^3H]-MPP^+ at the luminal BBB was measured by in situ brain perfusion in mice and rats [22, 23, 24]. […] With this method, the vascular composition of the brain is totally substituted by an artificial fluid, whose constitution can be modified. Mice and rats were anesthetized with ketamine-xylazine mixture 140–8 mg kg^−1 and 80-10 mg kg^−1, respectively. A catheter was inserted into the right carotid artery after ligation of the appropriate vessels. Just before perfusion, the heart was cut. Perfusion started immediately at a constant flow rate of 2.5 mL min^−1, and 10 mL min^−1, in mouse and rat, respectively.
The fluid pH (pHe) was checked and adjusted with a digital pH-meter (± 0.05 pH-units) immediately before perfusion. […] The perfusion was terminated by decapitating the animal after 120 s. […]
The apparent tissue distribution volume (Vtissue, µL g^−1) was calculated as (Equation (2)): (2) Vtissue=Vtissue/Cperf where Xtissue (dpm g^−1) is the calculated brain amount of [^3H]-MPP^+ and Cperf (dpm µL^−1), its concentration in the perfusion fluid (Equation (3)): (3) Xtissue=Xtot−VvCperf where Xtot (dpm g^−1) is the total quantity of [^3H]-MPP^+ measured in the sample tissue.
The initial transport rate, also called brain clearance, expressed as a Kin (µL s^−1 g^−1), was calculated from (Equation (4)): (4) Kin=Vtissue/T where T is the perfusion time (s).

Turning to `CN1CC=C(c2ccccc2)CC1` [MPTP, 1-methyl-4-phenyl-1,2,3,6-tetrahydropyridine], in the data set on OCT1 and/or OCT2, the “share of MPTP brain uptake accounted for by OCT1 and/or OCT2” value was “more than 90%”.

For `CC[N+](CC)(CC)CC` [TEA, Tetraethylammonium], in the data set on luminal BBB (TEA 30 mM co-perfusion, all rat and mouse strains tested), the “effect of co-perfused inhibitor on [3H]-MPP+ brain extraction/clearance” value is given as “remained unaltered”. Also, the “effect of inhibitor on [3H]-MPP+ uptake, apical to basolateral” value in data set [1] (TEA 2 mM, [3H]-MPP+ ~6 nM, OCT1-3/MATE function) is “did not produce any significant decrease”. Also, the “modification of [14C]-TEA brain transport” value in the data set with BBB (FVB Oct1−/− mice) is given as “no modification”.

For `C[n+]1ccc(-c2ccccc2)cc1` [[^3H]-MPP^+, 1-methyl-4-phenylpyridinium], the “differences in basal [3H]-MPP+ brain transport between the selected mouse strains” value with luminal BBB (2-month old mice, six strains) is listed as “not evidenced”. In addition, the “modification of [3H]-MPP+ brain transport” value in the data set with BBB (FVB (wild-type, Oct1/2−/−, Oct3−/−) and Swiss mice (+/- TEA)) was “no modification”.

On to `N[C@@H](Cc1c[nH]c2ccccc12)C(=O)O` [tryptophan], for which, in data set [1] (tryptophan 5 mM, [3H]-L-phenylalanine ~4 nM, n = 3, p < 0.05), the “effect of inhibitor on [3H]-L-phenylalanine uptake, apical to basolateral (SLC7A5)” value is reported as “significant decrease”.
